Assay results as given in patent publication US10934263B2, “Charged ion channel blockers and methods for use” (Nocion Therapeutics, Inc., priority 2019, dated 2021).
“And” between values parts separate entries of the source, which are not always exact repeats. Identical values can stand only once.

Key:
[1] = PAMPA membrane permeability assay; type: in vitro ADME; details: PAMPA permeability coefficient, GIT lipid, buffer pH 7.4, 4 hours incubation
In short: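 Passive permeability across GIT lipid-coated artificial membrane; compounds at 50 μM in pH 7.4 buffer in donor wells, incubated 4 h. Donor, acceptor and reference concentrations read by UV spectroscopy, permeability coefficient calculated from spectral AUCs.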

[2] = biological target: T1, NaV1.7 (Homo sapiens, UniProt Q15858); test: Automated patch clamp (Qube 384), external block of NaV1.7 in HEK293 cells; type: cell-based; details: compound in external solution, read-out: Nav1.7 Extracellular Inhibition (IC50)
T1 construct: expressed in transfected cells; tetracycline-inducible, kept under hygromycin and blasticidin
T1 sequence (Q15858 whole entry): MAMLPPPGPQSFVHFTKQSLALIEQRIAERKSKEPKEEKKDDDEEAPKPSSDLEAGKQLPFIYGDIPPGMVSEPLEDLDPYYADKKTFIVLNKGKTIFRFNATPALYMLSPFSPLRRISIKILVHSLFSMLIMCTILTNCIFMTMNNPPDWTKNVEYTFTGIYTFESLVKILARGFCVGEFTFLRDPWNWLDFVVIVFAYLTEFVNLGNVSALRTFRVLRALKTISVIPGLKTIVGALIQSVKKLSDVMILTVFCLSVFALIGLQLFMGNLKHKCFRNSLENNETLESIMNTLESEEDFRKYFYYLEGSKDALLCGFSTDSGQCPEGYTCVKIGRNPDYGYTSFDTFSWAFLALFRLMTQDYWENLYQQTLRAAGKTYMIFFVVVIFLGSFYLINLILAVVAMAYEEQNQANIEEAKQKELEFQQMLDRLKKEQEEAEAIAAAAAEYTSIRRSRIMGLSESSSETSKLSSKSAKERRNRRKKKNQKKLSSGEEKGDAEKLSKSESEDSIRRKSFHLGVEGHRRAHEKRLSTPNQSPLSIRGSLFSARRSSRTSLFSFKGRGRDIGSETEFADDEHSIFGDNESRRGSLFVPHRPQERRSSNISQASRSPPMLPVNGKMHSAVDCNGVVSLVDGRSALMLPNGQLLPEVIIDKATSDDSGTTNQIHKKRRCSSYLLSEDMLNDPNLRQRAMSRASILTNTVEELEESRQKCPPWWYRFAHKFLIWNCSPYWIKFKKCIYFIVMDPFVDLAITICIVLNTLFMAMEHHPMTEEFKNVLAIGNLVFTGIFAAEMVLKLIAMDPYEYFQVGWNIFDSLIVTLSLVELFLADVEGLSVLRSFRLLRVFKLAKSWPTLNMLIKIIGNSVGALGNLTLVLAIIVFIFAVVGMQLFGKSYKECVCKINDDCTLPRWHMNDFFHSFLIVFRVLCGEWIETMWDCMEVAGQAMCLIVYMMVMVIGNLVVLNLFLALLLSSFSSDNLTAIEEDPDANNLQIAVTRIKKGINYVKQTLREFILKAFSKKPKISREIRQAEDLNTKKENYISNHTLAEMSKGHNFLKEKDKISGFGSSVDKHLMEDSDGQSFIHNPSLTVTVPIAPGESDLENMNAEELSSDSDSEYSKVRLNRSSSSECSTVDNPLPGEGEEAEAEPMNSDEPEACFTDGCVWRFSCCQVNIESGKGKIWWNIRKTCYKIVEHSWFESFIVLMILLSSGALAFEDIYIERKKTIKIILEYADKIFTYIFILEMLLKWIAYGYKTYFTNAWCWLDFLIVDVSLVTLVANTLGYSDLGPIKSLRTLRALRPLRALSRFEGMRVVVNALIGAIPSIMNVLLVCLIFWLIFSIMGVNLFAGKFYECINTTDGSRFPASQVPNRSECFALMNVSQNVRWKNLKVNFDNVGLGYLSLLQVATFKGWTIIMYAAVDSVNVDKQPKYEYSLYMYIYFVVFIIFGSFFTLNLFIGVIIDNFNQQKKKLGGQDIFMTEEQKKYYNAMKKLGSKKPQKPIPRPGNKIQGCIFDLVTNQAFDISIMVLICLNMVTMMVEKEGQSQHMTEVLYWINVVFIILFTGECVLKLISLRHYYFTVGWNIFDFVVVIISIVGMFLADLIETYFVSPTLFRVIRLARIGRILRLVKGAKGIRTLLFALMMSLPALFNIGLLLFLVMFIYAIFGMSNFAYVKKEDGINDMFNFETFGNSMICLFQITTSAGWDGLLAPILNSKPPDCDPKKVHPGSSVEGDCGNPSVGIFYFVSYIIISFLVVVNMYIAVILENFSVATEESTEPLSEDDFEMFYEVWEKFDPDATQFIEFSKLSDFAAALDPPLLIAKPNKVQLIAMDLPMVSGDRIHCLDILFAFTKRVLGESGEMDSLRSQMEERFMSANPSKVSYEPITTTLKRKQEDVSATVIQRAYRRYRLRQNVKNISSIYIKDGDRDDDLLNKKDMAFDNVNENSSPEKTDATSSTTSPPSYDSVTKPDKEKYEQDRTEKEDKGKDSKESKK
Experimental: NaV1.7 was expressed in HEK293 cells upon induction with tetracycline. Cells were cultured in DMEM containing 10% dialyzed Fetal Bovine Serum (VWR, Radnor, Pa.), 1% Glutamax (VWR, Radnor, Pa.), 1% Penicillin-Streptomycin (VWR, Radnor, Pa.), 100 mg/L Hygromycin (Thermo Fisher Scientific, Waltham, Mass. and 5 mg/L Blasticidin (Alfa Aesar, Haverhill, Mass.). Cells were grown and maintained at 37° C. in a humidified environment containing 10% CO2 in air. Cells were detached from the culture flask for passage and harvested using 0.05% Trypsin-EDTA (Thermo Fisher Scientific, Waltham, Mass.). To induce NaV1.7, cells were induced with tetracycline (0.1-1 μg/mL, IBI Scientific, Peosta, Iowa) the day before recording.
Before experiments, cells were washed with DPBS (VWR, Radnor, Pa.), digested with Detachin (VWR Radnor, Pa.) and then triturated 10 times in CHO Serum-Free Media (VWR Radnor, Pa.) to resuspend the cells and to break apart cell aggregates. Cells were counted and the final concentration was set at 2-5 million cells per mL.
The intracellular solution contained the following: 140 mM CsF, 1 mM/5 mM EGTA/CsOH, 10 mM HEPES, 10 mM NaCl, adjusted to pH 7.3 with CsOH, and osmolality to 320 with sucrose. The external solution contained the following: 145 mM NaCl, 4 mM KCl, 1 mM MgCl2, 2 mM CaCl2, 10 mM HEPES, 10 mM Glucose, adjusted to pH 7.4 with CsOH and osmolality to 305 with sucrose. All chemicals are from Sigma-Aldrich, St. Louis, Mo. In order to test the degree of internal block by test compounds, the compounds were dissolved in internal solution at the indicated test concentration. […] In order to test the degree of external block by test compounds the compounds were dissolved in external solution at the indicated test concentration.
Automated Patch Clamps were performed on Qube 384 (Sophion Bioscience, Woburn Mass.) with multihole Qchips at a temperature setting of 22 degrees. The whole cells configuration was formed with default Qube seal and break-in parameter. The membrane potential was held at −100 mV before the voltage protocol began. Two voltage protocols were followed.
Step 1: Cells were held at −100 mV with a depolarized pulse to −20 mV for 10 ms, the interval was set at 5 s. Currents were corrected by default leak subtraction from every pulse. The duration was set at 5 mins.
Step 2: Cells were held at −100 mV with a depolarized pulse to −20 mV for 10 ms. The frequency was 5 Hz. Currents were corrected by leak subtraction calculated before step 2. The duration was set at 4 mins.
After Step 2, the external solution was changed with solutions containing test compounds. Qchips were held at −100 mV without pulsing. The total solution switching time was 8 minutes. After the external solution exchange, cells were recorded using the same procedure as step 2 for 10 minutes.
Data analysis was performed by Sophion Analyzer. Data were corrected with control cells (Non-Drug). The IC50 data were plotted with DR-plots/Hill function (a dose-response plot with a Hill fit).

SMILES | PAMPA (10^−6 cm/s) [1] | IC50 [2]
Cc1cccc(C)c1NC(=O)C[n+]1cccc(S(C)(=O)=O)c1 [Compound 46] | + (<0.1 10^−6 cm/s) | 10 to 30 µM
Cc1cccc(C)c1NC(=O)C[n+]1cccn1C1CCCC1 [Compound 71] | + (<0.1 10^−6 cm/s) | > 100 µM
Cc1cccc(C)c1NC(=O)C[n+]1cc2ccccc2n1C [Compound 54] | ++ (0.1-2.0 10^−6 cm/s) | 30 to 100 µM
Cc1cccc(C)c1NC(=O)C[n+]1cccc(N2CCCC2)c1 [Compound 51] | ++ (0.1-2.0 10^−6 cm/s) | > 100 µM
Cc1cccc(C)c1NC(=O)C[n+]1cccc(Cc2ccccc2)c1 [Compound 34] | ++ (0.1-2.0 10^−6 cm/s) | < 10 µM
Cc1cccc(C)c1NC(=O)C[n+]1cccn1CC#N [Compound 69] | + (<0.1 10^−6 cm/s) | > 100 µM
Cc1cccc(C)c1NC(=O)C[n+]1cccc(S(=O)(=O)N(C)C)c1 [Compound 47] | + (<0.1 10^−6 cm/s) | 10 to 30 µM
CCNc1ccc[n+](CC(=O)Nc2c(C)cccc2C)c1 [Compound 50] | + (<0.1 10^−6 cm/s) | 30 to 100 µM and > 100 µM
CNC(=O)Cc1ccc[n+](CC(=O)Nc2c(C)cccc2C)c1 [Compound 33] | ++ (0.1-2.0 10^−6 cm/s) | > 100 µM
Cc1cccc(C)c1NC(=O)C[n+]1cccn1CC1CC1 [Compound 73] | + (<0.1 10^−6 cm/s) | > 100 µM
Cc1cccc(C)c1NC(=O)C[n+]1cccc(C(F)(F)F)c1 [Compound 66] | ++ (0.1-2.0 10^−6 cm/s) | 30 to 100 µM

Results, then the molecule that gave them:

PAMPA (10^−6 cm/s) [1] | IC50 [2] | SMILES
++ (0.1-2.0 10^−6 cm/s) | > 100 µM | Cc1cccc(C)c1NC(=O)C(CC(C)C)[n+]1ccccc1 (stereo not drawn) [Compound 108]
+ (<0.1 10^−6 cm/s) | > 100 µM | CCn1c(C)cc[n+]1CC(=O)Nc1c(C)cccc1C [Compound 104]
+ (<0.1 10^−6 cm/s) | > 100 µM | Cc1cccc(C)c1NC(=O)Cn1ccc[n+]1CC(=O)Nc1c(C)cccc1C [Compound 109]
+ (<0.1 10^−6 cm/s) | > 100 µM | CCCn1c(C)cc[n+]1CC(=O)Nc1c(C)cccc1C [Compound 81]
+ (<0.1 10^−6 cm/s) | > 100 µM | Cc1cccc(C)c1NC(=O)C(Cc1ccccc1)[n+]1ccccc1 (stereo not drawn) [Compound 106]
+ (<0.1 10^−6 cm/s) | > 100 µM | CCn1ccc(C)[n+]1CC(=O)Nc1c(C)cccc1C [Compound 95]
+ (<0.1 10^−6 cm/s) | > 100 µM | CCOC(=O)CCCn1ccc[n+]1CC(=O)Nc1c(C)cccc1C [Compound 75]
+ (<0.1 10^−6 cm/s) | 30 to 100 µM | Cc1cccc(C)c1NC(=O)C[n+]1cc(OCc2ccccc2)ccc1Cl [Compound 103]
+ (<0.1 10^−6 cm/s) | > 100 µM | CCOC(=O)Cn1cc(C)c[n+]1CC(=O)Nc1c(C)cccc1C [Compound 76]
+ (<0.1 10^−6 cm/s) | > 100 µM | COc1cc(OC)c[n+](CC(=O)Nc2c(C)cccc2C)c1 [Compound 98]
+ (<0.1 10^−6 cm/s) | > 100 µM | CCCn1ccc(C)[n+]1CC(=O)Nc1c(C)cccc1C [Compound 101]
+ (<0.1 10^−6 cm/s) | 10 to 30 µM | Cc1cccc(C)c1NC(=O)C[n+]1cc(F)cc(-c2ccccc2)c1 [Compound 77]
+ (<0.1 10^−6 cm/s) | > 100 µM | COC(=O)c1c(F)c[n+](CC(=O)Nc2c(C)cccc2C)cc1F [Compound 89]
+ (<0.1 10^−6 cm/s) | 30 to 100 µM | Cc1cccc(C)c1NC(=O)C[n+]1c(C)cc(C)n1C [Compound 94]
+ (<0.1 10^−6 cm/s) | > 100 µM | CCOC(=O)c1cc(C)[n+](CC(=O)Nc2c(C)cccc2C)n1C [Compound 84]
+ (<0.1 10^−6 cm/s) | > 100 µM | CCCCn1ccc[n+]1CC(=O)Nc1c(C)cccc1C [Compound 83]
